Source: patent US9095585B2, “Bioavailable compositions of amorphous piperidinyl compounds” (Bristol-Myers Squibb Company, priority 2011, dated 2015)

Test: Physicochemical properties of Compound I (ionization, aqueous solubility)

Q: Which ionization (pH range of 2-11) does the source give for `CC(C)[C@@H](NC(=O)NCC(C)(C)O)C(=O)N1CC[C@](O)(c2ccc(Cl)cc2)C(C)(C)C1` [Compound I] here?
A: Its ionization is “non-ionizable”.

Q: What about the aqueous solubility (room temperature) of the same molecule?
A: Its aqueous solubility is “low”.
